A word on the EC50: it is the concentration that produces a half-maximal response. Usually CC50 stands for the concentration at which the toxic effect on the cells reaches its halfway point. A lower CC50 goes with harm at low concentration.

Here are results for 20 molecules from US11053235B2, “Substituted 1,4-dihydropyrimidines for the treatment of HBV infection or HBV-induced diseases” (Janssen Sciences Ireland Unlimited Company, priority 2018, dated 2021).

One data set concerns HBV. Briefly: Anti-viral assay in HepG2.2.15 cells: HBV inhibitory activity (HBV DNA in culture medium by q-PCR). It counts as cell-based. Particulars: Hepatitis B virus, HepG2.2.15, 144 h. The essentials:
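HepG2.2.15 cells seeded at 40,000/well in 2% FBS medium, dosed next day for 6 days (medium refreshed once midway); 8-point 3-fold dilutions from 10 uM top. HBV DNA in culture medium extracted and quantified by q-PCR; EC50 calculated from dose-response.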

The nature of data set [1]: Cytotoxicity determination in HepG2.2.15 cells (CCK-8). The data set is classed as cell-based. The conditions noted are these: human, 6 days treatment, CCK-8, highest concentration 100 uM. The essentials:
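HepG2.2.15 cells seeded at 5,000 cells/well in 2% FBS medium and exposed to compounds for 6 days (medium refreshed once), 8 three-fold dilutions from 100 uM. Viability read by CCK-8 after 2.5 h at 37 °C, absorbance 450 nm with 630 nm reference; CC50 calculated.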

Where [2] appears, read: HepG2.2.15 cells, 6 days treatment, HBV DNA in culture medium by q-PCR, highest concentration 10 uM, read-out: EC50.

The structures appear in SMILES notation. Like-named read-outs stand apart in the source and are kept apart here.

Turning to `CCOC(=O)C1=C(C2CCN(c3ncc(C(=O)O)cc3F)CC2)NC(c2nccs2)=NC1c1ccc(F)c(F)c1Cl` (single isomer, unassigned) [II-45-B, 6-(4-(6-(2-Chloro-3,4-difluorophenyl)-5-(ethoxycarbonyl)-2-(thiazol-2-yl)-3,6-dihydropyrimidin-4-yl)piperidin-1-yl)-5-fluoronicotinic Acid], the concentration giving a half-maximal response (EC50) with HBV (setting [2]) was 8.7 nM. The CC50 at 6 days in data set [1] worked out at 4430 nM.
For the molecule `CCOC(=O)C1=C(C2CCN(c3cc(C)c(C(=O)O)nn3)CC2)NC(c2nccs2)=NC1c1ccc(F)c(F)c1Cl` (single isomer, unassigned) [II-46-B, 6-(4-(6-(2-Chloro-3,4-difluorophenyl)-5-(ethoxycarbonyl)-2-(thiazol-2-yl)-3,6-dihydropyrimidin-4-yl)piperidin-1-yl)-4-methylpyridazine-3-carboxylic Acid], the EC50 in the data set with HBV (setting [2]) was determined as 100 nM. This molecule also showed a CC50 at 6 days in data set [1] of 3670 nM.
On to `CCOC(=O)C1=C(C2CCN(c3cnc(OC)c(C(=O)O)n3)CC2)NC(c2nccs2)=NC1c1ccc(F)c(F)c1Cl` (single isomer, unassigned) [II-47-B, 6-(4-(6-(2-chloro-3,4-difluorophenyl)-5-(ethoxycarbonyl)-2-(thiazol-2-yl)-3,6-dihydropyrimidin-4-yl)piperidin-1-yl)-3-methoxypyrazine-2-carboxylic Acid], for which, in the data set on HBV (setting [2]), the half-maximal effective concentration (EC50) came out at 25 nM. In data set [1], this molecule gave a CC50 at 6 days of 11100 nM.
Take `CCOC(=O)C1=C(C2CCN(c3cnc(C)c(C(=O)O)n3)CC2)NC(c2nccs2)=NC1c1ccc(F)c(F)c1Cl` (single isomer, unassigned) [II-48-B, 6-(4-(6-(2-chloro-3,4-difluorophenyl)-5-(ethoxycarbonyl)-2-(thiazol-2-yl)-3,6-dihydropyrimidin-4-yl)piperidin-1-yl)-3-methylpyrazine-2-carboxylic Acid]: the half-maximal effective concentration (EC50) with HBV (setting [2]) was 79 nM. Moreover, the cytotoxic concentration (CC50) at 6 days in data set [1] came to 12900 nM.
In the same order, the values of `CCOC(=O)C1=C(C2CCN(c3cnc(C(=O)O)c(C)n3)CC2)NC(c2nccs2)=NC1c1ccc(F)c(F)c1Cl` (single isomer, unassigned) [II-49-B, 5-(4-(6-(2-Chloro-3,4-difluorophenyl)-5-(ethoxycarbonyl)-2-(thiazol-2-yl)-3,6-dihydropyrimidin-4-yl)piperidin-1-yl)-3-methylpyrazine-2-carboxylic Acid] are 50 nM and 110 nM.
With `CCOC(=O)C1=C(C2CCN(c3ncc(C(=O)O)o3)CC2)NC(c2nccs2)=NC1c1ccc(F)c(F)c1Cl` (single isomer, unassigned) [II-50-B, 2-(4-(6-(2-Chloro-3,4-difluorophenyl)-5-(ethoxycarbonyl)-2-(thiazol-2-yl)-3,6-dihydropyrimidin-4-yl)piperidin-1-yl)oxazole-5-carboxylic Acid], in the data set with HBV (setting [2]), the EC50 was 26 nM. Moreover, in data set [1], the CC50 at 6 days is 19000 nM.
For `CCOC(=O)C1=C(C2CCN(c3cnc(C(=O)O)cn3)CC2)NC(c2nccs2)=NC1c1ccc(F)c(F)c1Cl` (single isomer, unassigned) [II-51-B, 5-(4-(6-(2-Chloro-3,4-difluorophenyl)-5-(ethoxycarbonyl)-2-(thiazol-2-yl)-3,6-dihydropyrimidin-4-yl)piperidin-1-yl)pyrazine-2-carboxylic Acid], the EC50 with HBV (setting [2]) was below 4.6 nM. The molecule further registered a cytotoxic concentration (CC50) at 6 days in data set [1] of 670 nM.
Consider `CCOC(=O)C1=C(C2CCN(c3cc(C(=O)O)nc(OC)n3)CC2)NC(c2nccs2)=NC1c1ccc(F)c(F)c1Cl` (single isomer, unassigned) [II-52-B, 6-(4-(6-(2-Chloro-3,4-difluorophenyl)-5-(ethoxycarbonyl)-2-(thiazol-2-yl)-3,6-dihydropyrimidin-4-yl)piperidin-1-yl)-2-methoxypyrimidine-4-carboxylic Acid], for which the 50% effective concentration (EC50) in the data set with HBV (setting [2]) is 51 nM. Moreover, the CC50 at 6 days in data set [1] came to 3700 nM.
The corresponding values for `CCOC(=O)C1=C(C2CCN(c3cc(C(=O)O)nc(C)n3)CC2)NC(c2nccs2)=NC1c1ccc(F)c(F)c1Cl` (single isomer, unassigned) [II-53-B, 6-(4-(6-(2-Chloro-3,4-difluorophenyl)-5-(ethoxycarbonyl)-2-(thiazol-2-yl)-3,6-dihydropyrimidin-4-yl)piperidin-1-yl)-2-methylpyrimidine-4-carboxylic Acid] are 98 nM and 9050 nM.
Turning to `CCOC(=O)C1=C(C2CCN(c3cc(C(=O)O)ncn3)CC2)NC(c2nccs2)=NC1c1ccc(F)c(F)c1Cl` (single isomer, unassigned) [II-54-B, 6-(4-(6-(2-Chloro-3,4-difluorophenyl)-5-(ethoxycarbonyl)-2-(thiazol-2-yl)-3,6-dihydropyrimidin-4-yl)piperidin-1-yl)pyrimidine-4-carboxylic Acid], the EC50 in the data set on HBV (setting [2]) stood at 19 nM. Also, the CC50 at 6 days in data set [1] worked out at 10300 nM.
The corresponding values for `CCOC(=O)C1=C(C2CCN(c3ncc([C@]4(O)C[C@@H](C(=O)O)C4)cn3)CC2)NC(c2nccs2)=NC1c1ccc(F)c(F)c1Cl` (single isomer, unassigned) [II-55-B, (trans)-3-(2-(4-(6-(2-Chloro-3,4-difluorophenyl)-5-(ethoxycarbonyl)-2-(thiazol-2-yl)-3,6-dihydropyrimidin-4-yl)piperidin-1-yl)pyrimidin-5-yl)-3-hydroxycyclobutanecarboxylic Acid] are below 4.6 nM and 7960 nM.
As to `CCOC(=O)C1=C(C2CCN(c3nc(C)c(C)c(C(=O)O)n3)CC2)NC(c2nccs2)=NC1c1ccc(F)c(F)c1Cl` (single isomer, unassigned) [II-56-B, 2-(4-(6-(2-Chloro-3,4-difluorophenyl)-5-(ethoxycarbonyl)-2-(thiazol-2-yl)-3,6-dihydropyrimidin-4-yl)piperidin-1-yl)-5,6-dimethylpyrimidine-4-carboxylic Acid], the half-maximal effective concentration (EC50) with HBV (setting [2]) amounted to 22 nM. In addition, the half-maximal cytotoxic concentration (CC50) at 6 days in data set [1] amounted to 5540 nM.
With `CCOC(=O)C1=C(C2CCN(c3nc(OC)cc(C(=O)O)n3)CC2)NC(c2nccs2)=NC1c1ccc(F)c(F)c1Cl` (single isomer, unassigned) [II-57-B, 2-(4-(6-(2-chloro-3,4-difluorophenyl)-5-(ethoxycarbonyl)-2-(thiazol-2-yl)-3,6-dihydropyrimidin-4-yl)piperidin-1-yl)-6-methoxypyrimidine-4-carboxylic Acid], the concentration for a half-maximal effect (EC50) in the data set on HBV (setting [2]) is 100 nM. For the same molecule, half-maximal cytotoxicity in data set [1] (CC50 at 6 days) was put at 4880 nM.
Consider `CCOC(=O)C1=C(C2CCN(c3nc(C)cc(C(=O)O)n3)CC2)NC(c2nccs2)=NC1c1ccc(F)c(F)c1Cl` (single isomer, unassigned) [II-58-B, 2-(4-(6-(2-Chloro-3,4-difluorophenyl)-5-(ethoxycarbonyl)-2-(thiazol-2-yl)-3,6-dihydropyrimidin-4-yl)piperidin-1-yl)-6-methylpyrimidine-4-carboxylic Acid], for which the EC50 in the data set with HBV (setting [2]) worked out at 37 nM. The same molecule registered a CC50 at 6 days in data set [1] of 4800 nM.
With `CCOC(=O)C1=C(C2CCN(c3ncc(C(C)C)c(C(=O)O)n3)CC2)NC(c2nccs2)=NC1c1ccc(F)c(F)c1Cl` (single isomer, unassigned) [II-59-B, 2-(4-(6-(2-Chloro-3,4-difluorophenyl)-5-(ethoxycarbonyl)-2-(thiazol-2-yl)-3,6-dihydropyrimidin-4-yl)piperidin-1-yl)-5-isopropylpyrimidine-4-carboxylic Acid], the 50% effective concentration (EC50) with HBV (setting [2]) came out at 13 nM. For the same molecule, in data set [1], the cytotoxic concentration (CC50) at 6 days was 8650 nM.
On to `CCOC(=O)C1=C(C2CCN(c3ncc(CC)c(C(=O)O)n3)CC2)NC(c2nccs2)=NC1c1ccc(F)c(F)c1Cl` (single isomer, unassigned) [II-60-B, 2-(4-(6-(2-Chloro-3,4-difluorophenyl)-5-(ethoxycarbonyl)-2-(thiazol-2-yl)-3,6-dihydropyrimidin-4-yl)piperidin-1-yl)-5-ethylpyrimidine-4-carboxylic Acid], for which the EC50 with HBV (setting [2]) was found to be 5.9 nM. This molecule gave a 50% cytotoxic concentration (CC50) at 6 days in data set [1] of 8920 nM.
In the case of `CCOC(=O)C1=C(C2CCN(c3ncc(Cl)c(C(=O)O)n3)CC2)NC(c2nccs2)=NC1c1ccc(F)c(F)c1Cl` (single isomer, unassigned) [II-61-B, 5-Chloro-2-(4-(6-(2-chloro-3,4-difluorophenyl)-5-(ethoxycarbonyl)-2-(thiazol-2-yl)-3,6-dihydropyrimidin-4-yl)piperidin-1-yl)pyrimidine-4-carboxylic Acid], the 50% effective concentration (EC50) with HBV (setting [2]) amounted to 9.1 nM. Besides, in data set [1], the cytotoxic concentration (CC50) at 6 days amounted to 6680 nM.
As to `CCOC(=O)C1=C(C2CCN(c3ncc(F)c(C(=O)O)n3)CC2)NC(c2nccs2)=NC1c1ccc(F)c(F)c1Cl` (single isomer, unassigned) [II-62-B, 2-(4-(6-(2-Chloro-3,4-difluorophenyl)-5-(ethoxycarbonyl)-2-(thiazol-2-yl)-3,6-dihydropyrimidin-4-yl)piperidin-1-yl)-5-fluoropyrimidine-4-carboxylic Acid], the concentration for a half-maximal effect (EC50) in the data set on HBV (setting [2]) is 16 nM. The 50% cytotoxic concentration (CC50) at 6 days in data set [1] stood at 6690 nM.
In the same order, the values of `CCOC(=O)C1=C(C2CCN(c3ncc(C)c(C(=O)O)n3)CC2)NC(c2nccs2)=NC1c1ccc(F)c(F)c1Cl` (single isomer, unassigned) [II-63-B, 2-(4-(6-(2-Chloro-3,4-difluorophenyl)-5-(ethoxycarbonyl)-2-(thiazol-2-yl)-3,6-dihydropyrimidin-4-yl)piperidin-1-yl)-5-methylpyrimidine-4-carboxylic Acid] are 21 nM and 8280 nM.
Consider `CCOC(=O)C1=C(C2CCN(c3nc(C)c(C(=O)O)o3)CC2)NC(c2nccs2)=NC1c1ccc(F)c(F)c1Cl` (single isomer, unassigned) [II-64-B, Lithium 2-(4-(6-(2-chloro-3,4-difluorophenyl)-5-(ethoxycarbonyl)-2-(thiazol-2-yl)-3,6-dihydropyrimidin-4-yl)piperidin-1-yl)-4-methyloxazole-5-carboxylate], for which the EC50 in the data set on HBV turned out to be 75 nM. Also, the cytotoxic concentration (CC50) at 6 days in data set [1] came out at 6840 nM.
